Data reported in patent US9120749B2, “Quinoline derivatives and MELK inhibitors containing the same” (ONCOTHERAPY SCIENCE, INC., priority 2010, dated 2015).
Counter-ions that a name gives are not always drawn. Like-named read-outs stand apart in the source and are kept apart here.

How the values were obtained:
[1] = test system: A549 cells; experiment: Cell-based assay: anti-proliferative activity, Cell Counting Kit-8, 72 hours (A549); settings: 72 hours
Procedure, shortened: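 A549 cells were seeded in 96-well plates and exposed to candidate inhibitors for 72 hours. Cell growth was then measured with Cell Counting Kit-8, and IC50 values were calculated from the resulting growth data.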

[2] = test system: DU4475 cells; experiment: Cell-based assay: anti-proliferative activity, Cell Counting Kit-8, 72 hours (DU4475)
[3] = test system: T47D cells; experiment: Cell-based assay: anti-proliferative activity, Cell Counting Kit-8, 72 hours (T47D)
Procedure, shortened: (§1)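 Cellular growth is read by CCK-8 colorimetric kit 72 h after inhibitor addition to seeded cells, and IC50 values are derived from the resulting data; MELK protein levels in these lines are checked beforehand by immunoblotting whole crude lysate.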

[4] = target: MELK (Homo sapiens, UniProt Q14680); experiment: Kinase assay: MELK activity, phosphorylation of FITC-labeled histone H3 peptide measured by IMAP fluorescence polarization; assay type: biochemical; settings: read-out: IC50 (μM) (kinase assay)
Procedure, shortened: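 FP readout: FITC-histone H3 peptide phosphorylation, read 0.5 h (RT) after stopping with 3x volume of IMAP progressive binding solution. Final DMSO 1%.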

[5] = test system: HT-1197 cells; experiment: Cell-based assay: anti-proliferative activity, Cell Counting Kit-8, 72 hours (HT-1197, negative control without MELK expression); settings: HT1197 cells (negative control), 72 hours
Procedure, shortened: as §1

MELK, sequence (Q14680 whole entry, looked up): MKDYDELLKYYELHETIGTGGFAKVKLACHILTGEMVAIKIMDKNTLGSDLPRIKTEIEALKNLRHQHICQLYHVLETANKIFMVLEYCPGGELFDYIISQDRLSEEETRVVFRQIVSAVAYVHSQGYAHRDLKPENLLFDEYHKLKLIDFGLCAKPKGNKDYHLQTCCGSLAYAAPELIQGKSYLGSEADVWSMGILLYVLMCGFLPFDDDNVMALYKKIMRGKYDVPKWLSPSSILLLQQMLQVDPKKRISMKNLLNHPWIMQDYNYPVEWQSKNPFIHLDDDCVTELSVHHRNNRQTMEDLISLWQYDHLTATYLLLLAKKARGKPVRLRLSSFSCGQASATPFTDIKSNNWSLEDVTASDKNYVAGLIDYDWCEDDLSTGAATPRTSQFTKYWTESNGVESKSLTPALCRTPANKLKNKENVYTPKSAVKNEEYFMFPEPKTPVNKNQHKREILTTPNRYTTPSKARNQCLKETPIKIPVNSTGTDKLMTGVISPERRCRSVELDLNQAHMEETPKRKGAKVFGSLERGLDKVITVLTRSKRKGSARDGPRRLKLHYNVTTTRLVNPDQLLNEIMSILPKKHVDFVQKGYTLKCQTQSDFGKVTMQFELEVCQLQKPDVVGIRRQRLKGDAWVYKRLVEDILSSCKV

**Q.** For `O=C(c1cnc2ccc(-c3cc(F)c(O)c(Cl)c3)cc2c1Nc1ccc(N2CCNCC2)cn1)C1CC1` [Example 525, (6-(3-chloro-5-fluoro-4-hydroxyphenyl)-4-(5-(piperazin-1-yl)pyridin-2-ylamino)quinolin-3-yl)(cyclopropyl)methanone], which IC50 ([1]; Homo sapiens, A549, 72 h) is on record?
**A.** The IC50 was 1.7 µM.

**Q.** What about the IC50 ([2]; Homo sapiens, DU-4475, 72 h) of the same molecule?
**A.** Its IC50 is 0.46 µM.

**Q.** What about the IC50 ([3]; Homo sapiens, T47D, 72 h) of the same molecule?
**A.** The IC50 was 0.48 µM.

**Q.** What about the IC50 [4] of the same molecule?
**A.** The IC50 was 0.0048 µM.

**Q.** And the IC50 ([5]; Homo sapiens, HT1197, 72 h)?
**A.** Its IC50 is 11 µM.

**Q.** `CN(C)C[C@H]1CC[C@@H](Nc2c(C(=O)C3CC3)cnc3ccc(-c4cc(Cl)c(O)c(Cl)c4)cc23)CC1` [Example 526, cyclopropyl(6-(3,5-dichloro-4-hydroxyphenyl)-4-((1s,4s)-4-((dimethylamino)methyl)cyclohexylamino)quinolin-3-yl)methanone] was tested. Which IC50 ([1]; Homo sapiens, A549, 72 h) did it give?
**A.** The IC50 was 0.25 µM.

**Q.** And the IC50 ([2]; Homo sapiens, DU-4475, 72 h)?
**A.** Its IC50 is 0.15 µM.

**Q.** And the IC50 ([3]; Homo sapiens, T47D, 72 h)?
**A.** Its IC50 is 0.29 µM.

**Q.** And the IC50 [4]?
**A.** Its IC50 is 0.0021 µM.

**Q.** What about the IC50 ([5]; Homo sapiens, HT1197, 72 h) of the same molecule?
**A.** The IC50 was 1.2 µM.

**Q.** With `CC(=O)c1cnc2ccc(-c3cc(F)c(O)c(Cl)c3)cc2c1N[C@H]1CC[C@H](N)CC1` [Example 527, 1-(4-((trans-4-aminocyclohexyl)amino)-6-(3-chloro-5-fluoro-4-hydroxyphenyl)quinolin-3-yl)ethanone] as the molecule, how does the IC50 ([1]; Homo sapiens, A549, 72 h) read?
**A.** Its IC50 is 0.42 µM.

**Q.** What about the IC50 ([2]; Homo sapiens, DU-4475, 72 h) of the same molecule?
**A.** The IC50 was 0.02 µM.

**Q.** And the IC50 ([3]; Homo sapiens, T47D, 72 h)?
**A.** Its IC50 is 0.034 µM.

**Q.** And the IC50 [4]?
**A.** The IC50 was 0.015 µM.

**Q.** And the IC50 ([5]; Homo sapiens, HT1197, 72 h)?
**A.** The IC50 was 10 µM.

**Q.** How did the IC50 ([1]; Homo sapiens, A549, 72 h) turn out when `COc1cc(-c2ccc3ncc(C(=O)C4CC4)c(Nc4ccc(N5CCNCC5)cn4)c3c2)cc(Cl)c1O` [Example 528, (6-(3-chloro-4-hydroxy-5-methoxyphenyl)-4-(5-(piperazin-1-yl)pyridin-2-ylamino)quinolin-3-yl)(cyclopropyl)methanone hydrochloride] was run?
**A.** Its IC50 is 1.3 µM.

**Q.** What about the IC50 ([2]; Homo sapiens, DU-4475, 72 h) of the same molecule?
**A.** The IC50 was 1.7 µM.

**Q.** What about the IC50 ([3]; Homo sapiens, T47D, 72 h) of the same molecule?
**A.** Its IC50 is 1.8 µM.

**Q.** And the IC50 [4]?
**A.** The IC50 was 0.0044 µM.

**Q.** And the IC50 ([5]; Homo sapiens, HT1197, 72 h)?
**A.** Its IC50 is 4.2 µM.

**Q.** With `CCCC(=O)c1cnc2ccc(-c3cc(Cl)c(O)c(OC)c3)cc2c1N[C@H]1CC[C@H](N)CC1` [Example 529, 1-(4-((trans-4-aminocyclohexyl)amino)-6-(3-chloro-4-hydroxy-5-methoxyphenyl)quinolin-3-yl)butan-1-one] as the molecule, how does the IC50 ([1]; Homo sapiens, A549, 72 h) read?
**A.** Its IC50 is 0.15 µM.

**Q.** And the IC50 ([2]; Homo sapiens, DU-4475, 72 h)?
**A.** The IC50 was 0.076 µM.

**Q.** What about the IC50 ([3]; Homo sapiens, T47D, 72 h) of the same molecule?
**A.** The IC50 was 0.081 µM.

**Q.** What about the IC50 [4] of the same molecule?
**A.** Its IC50 is 0.0038 µM.

**Q.** And the IC50 ([5]; Homo sapiens, HT1197, 72 h)?
**A.** The IC50 was 1.5 µM.

**Q.** What does the source list for `CCCC(=O)c1cnc2ccc(-c3cc(Cl)c(O)c(Cl)c3)cc2c1Nc1ccc(CN(C)C)cc1` [Example 530, 1-(6-(3,5-dichloro-4-hydroxyphenyl)-4-((4-((dimethylamino)methyl)phenyl)amino)quinolin-3-yl)butan-1-one]?
**A.** IC50 ([1]; Homo sapiens, A549, 72 h): 0.15 µM; IC50 ([2]; Homo sapiens, DU-4475, 72 h): 0.086 µM; IC50 ([3]; Homo sapiens, T47D, 72 h): 0.07 µM; IC50 [4]: 0.0045 µM; IC50 ([5]; Homo sapiens, HT1197, 72 h): 1.2 µM

**Q.** Which IC50 ([1]; dihydrochloride) does the source give for `CCCC(=O)c1cnc2ccc(-c3cc(Cl)c(O)c(Cl)c3)cc2c1Nc1ccc(CN(C)C)cc1` [Example 531, 1-(6-(3,5-dichloro-4-hydroxyphenyl)-4-((4-((dimethylamino)methyl)phenyl)amino)quinolin-3-yl)butan-1-one dihydrochloride] here?
**A.** The IC50 was 0.18 µM.

**Q.** And the IC50 ([2]; dihydrochloride)?
**A.** Its IC50 is 0.072 µM.

**Q.** What about the IC50 ([3]; 72 hours, dihydrochloride) of the same molecule?
**A.** Its IC50 is 0.11 µM.

**Q.** What about the IC50 ([4]; dihydrochloride) of the same molecule?
**A.** Its IC50 is 0.0052 µM.

**Q.** And the IC50 ([5]; dihydrochloride)?
**A.** Its IC50 is 1.3 µM.

**Q.** For `CCCC(=O)c1cnc2ccc(-c3cc(F)c(O)c(Cl)c3)cc2c1N[C@H]1CC[C@H](N)CC1` [Example 532, 1-(4-((trans-4-aminocyclohexyl)amino)-6-(3-chloro-5-fluoro-4-hydroxyphenyl)quinolin-3-yl)butan-1-one], which IC50 ([1]; Homo sapiens, A549, 72 h) is on record?
**A.** The IC50 was 0.49 µM.

**Q.** And the IC50 ([2]; Homo sapiens, DU-4475, 72 h)?
**A.** Its IC50 is 0.03 µM.

**Q.** And the IC50 ([3]; Homo sapiens, T47D, 72 h)?
**A.** The IC50 was 0.046 µM.

**Q.** What about the IC50 [4] of the same molecule?
**A.** Its IC50 is 0.017 µM.

**Q.** What about the IC50 ([5]; Homo sapiens, HT1197, 72 h) of the same molecule?
**A.** The IC50 was 2.9 µM.

**Q.** `COc1cc(-c2ccc3ncc(C(=O)C4CC4)c(N4CCN(C)CC4)c3c2)cc(Cl)c1O` [Example 533, (6-(3-chloro-4-hydroxy-5-methoxyphenyl)-4-(4-methylpiperazin-1-yl)quinolin-3-yl)(cyclopropyl)methanone] was tested. Which IC50 ([1]; Homo sapiens, A549, 72 h) did it give?
**A.** The IC50 was 0.26 µM.

**Q.** And the IC50 ([2]; Homo sapiens, DU-4475, 72 h)?
**A.** The IC50 was 0.4 µM.

**Q.** And the IC50 ([3]; Homo sapiens, T47D, 72 h)?
**A.** Its IC50 is 0.48 µM.

**Q.** And the IC50 [4]?
**A.** Its IC50 is 0.0088 µM.

**Q.** And the IC50 ([5]; Homo sapiens, HT1197, 72 h)?
**A.** The IC50 was 2.6 µM.

**Q.** For `CN1CCN(c2c(C(=O)C3CC3)cnc3ccc(-c4cc(F)c(O)c(Cl)c4)cc23)CC1` [Example 534, (6-(3-chloro-5-fluoro-4-hydroxyphenyl)-4-(4-methylpiperazin-1-yl)quinolin-3-yl)(cyclopropyl)methanone], which IC50 ([1]; Homo sapiens, A549, 72 h) is on record?
**A.** The IC50 was 1.4 µM.

**Q.** And the IC50 ([2]; Homo sapiens, DU-4475, 72 h)?
**A.** Its IC50 is 0.96 µM.

**Q.** What about the IC50 ([3]; Homo sapiens, T47D, 72 h) of the same molecule?
**A.** The IC50 was 1.1 µM.

**Q.** And the IC50 [4]?
**A.** The IC50 was 0.025 µM.

**Q.** What about the IC50 ([5]; Homo sapiens, HT1197, 72 h) of the same molecule?
**A.** Its IC50 is 2.8 µM.

**Q.** `CCCC(=O)c1cnc2ccc(-c3cc(Cl)c(O)c(Cl)c3)cc2c1N[C@H]1CC[C@H](N)CC1` [Example 535, 1-(4-((trans-4-aminocyclohexyl)amino)-6-(3,5-dichloro-4-hydroxyphenyl)quinolin-3-yl)butan-1-one] was tested. Which IC50 ([1]; Homo sapiens, A549, 72 h) did it give?
**A.** Its IC50 is 0.24 µM.

**Q.** What about the IC50 ([2]; Homo sapiens, DU-4475, 72 h) of the same molecule?
**A.** The IC50 was 0.025 µM.

**Q.** What about the IC50 ([3]; Homo sapiens, T47D, 72 h) of the same molecule?
**A.** The IC50 was 0.077 µM.

**Q.** What about the IC50 [4] of the same molecule?
**A.** Its IC50 is 0.0024 µM.

**Q.** What about the IC50 ([5]; Homo sapiens, HT1197, 72 h) of the same molecule?
**A.** The IC50 was 3.3 µM.
